Data from paper PMC3914206.

Assays:
panel of 442 kinases [1] = target: T1, panel of 442 kinases (Homo sapiens, UniProt P42680); format: binding; details: kinase TEC; compound concentration 10 µM
T1 construct: purchased KINOMEscan
T1 sequence (P42680 1-631): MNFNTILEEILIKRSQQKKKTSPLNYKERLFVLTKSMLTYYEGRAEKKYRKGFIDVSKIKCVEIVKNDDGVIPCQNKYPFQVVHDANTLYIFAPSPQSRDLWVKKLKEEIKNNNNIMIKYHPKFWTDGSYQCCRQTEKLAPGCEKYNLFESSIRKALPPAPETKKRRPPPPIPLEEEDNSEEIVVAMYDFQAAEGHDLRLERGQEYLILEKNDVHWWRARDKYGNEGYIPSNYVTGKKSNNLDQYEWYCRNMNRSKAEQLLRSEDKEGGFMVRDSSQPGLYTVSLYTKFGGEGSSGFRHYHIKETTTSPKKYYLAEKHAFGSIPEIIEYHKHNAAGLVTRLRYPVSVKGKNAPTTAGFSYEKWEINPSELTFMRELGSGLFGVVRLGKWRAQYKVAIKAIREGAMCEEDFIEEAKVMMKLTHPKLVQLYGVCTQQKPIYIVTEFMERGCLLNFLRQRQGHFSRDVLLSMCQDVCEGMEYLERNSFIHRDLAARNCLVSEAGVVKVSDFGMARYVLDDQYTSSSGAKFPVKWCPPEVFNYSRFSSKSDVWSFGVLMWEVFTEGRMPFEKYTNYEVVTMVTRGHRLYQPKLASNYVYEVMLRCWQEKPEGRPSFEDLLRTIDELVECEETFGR
Source text: (§1) We assessed the selectivity of members of this scaffold using the KINOMEscan methodology across a near comprehensive panel of 442 kinases [[18,27]].

panel of 442 kinases [2] = target: T2, panel of 442 kinases (Homo sapiens, UniProt Q15835); format: binding; details: Compound Concentration 10 µM
T2 construct: purchased KINOMEscan
T2 sequence (Q15835 1-563): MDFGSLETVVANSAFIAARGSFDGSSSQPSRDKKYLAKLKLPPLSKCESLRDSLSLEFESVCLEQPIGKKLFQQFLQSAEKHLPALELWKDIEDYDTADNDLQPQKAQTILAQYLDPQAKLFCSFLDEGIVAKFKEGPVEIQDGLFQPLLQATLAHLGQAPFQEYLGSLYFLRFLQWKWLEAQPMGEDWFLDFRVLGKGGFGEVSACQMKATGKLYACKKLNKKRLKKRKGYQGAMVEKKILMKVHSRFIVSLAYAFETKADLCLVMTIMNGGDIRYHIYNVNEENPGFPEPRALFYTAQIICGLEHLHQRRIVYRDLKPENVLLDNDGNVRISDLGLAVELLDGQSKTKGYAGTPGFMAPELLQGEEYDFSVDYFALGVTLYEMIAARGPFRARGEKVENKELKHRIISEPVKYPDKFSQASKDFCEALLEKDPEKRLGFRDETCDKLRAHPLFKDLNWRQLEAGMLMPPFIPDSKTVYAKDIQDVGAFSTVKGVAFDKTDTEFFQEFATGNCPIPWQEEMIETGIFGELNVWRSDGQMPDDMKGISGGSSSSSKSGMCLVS
Source text: as §1

SMILES	% Ctrl, TEC (panel of 442 kinases [1]) [% Ctrl]	KINOMEscan: GRK1 (panel of 442 kinases [2])
CCOc1cc(C(=O)N2CCC(N3CCN(C)CC3)CC2)ccc1Nc1ncc2c(n1)N(C1CCCC1)c1ccccc1C(=O)N2C [Compound 26]	100	100
COc1cc(C(=O)N2CCC(N3CCN(C)CC3)CC2)ccc1Nc1ncc2c(n1)N(C1CCCC1)c1ccccc1C(=O)N2C [Compound 25, 11-cyclopentyl-2-((2-methoxy-4-(4-(4-methylpiperazin-1-yl)piperidine-1-carbonyl)phenyl)amino)-5-methyl-5H-benzo[e]pyrimido[5,4-b][1,4]diazepin-6(11H)-one]	91	85
COc1cc(C(=O)N2CCC(N3CCN(C)CC3)CC2)ccc1Nc1ncc2c(n1)N1CCc3cccc(c31)C(=O)N2C [Compound 24]	100	–
COc1cc(C(=O)N2CCC(N3CCN(C)CC3)CC2)ccc1Nc1ncc2c(n1)N(C)c1ccccc1C(=O)N2C [15 (LRRK2-IN-1)]	100	91
